# Tests used:
# [1] = test system: 65 other nonprimary targets (receptors and ion channels); test: Off-target standard assays, remaining panel; format: binding; details: 10 µM
# From the text: (§1) Table: List of genes examined by real-time PCR and the primer sequences used.
# (§2) Genes Forward primers Reverse primers […]
# (§3) Vim 5’-[…]-3’ 5’-[…]-3’ […]
# (§4) Zeb2 5’-[…]-3’ 5’-[…]-3’
# (§5) Twist1 5’-[…]-3’ 5’-[…]-3’
# (§6) Cdh1 5’-[…]-3’ 5’-[…]-3’
# (§7) Mta3 5’-[…]-3’ 5’-[…]-3’ […]
# (§8) Off-target standard assays
# (§9) Methods employed in this study have been adapted from the scientific literature to […]
# (§10) maximize reliability and reproducibility. Reference standards were run as an integral part of […]
# (§11) each assay to ensure the validity of the results obtained. Radioligand binding Assays were […]
# (§12) performed under conditions described in the accompanying "Methods" section of this report […]
# (§13) by Eurofins Panlabs, Inc (Taipei, Taiwan, ROC).
# (§14) BPRCX807 were tested in the hERG (hERG-CHO, automated patch-clamp) assay and determined at Eurofins Panlabs (Missouri, USA). The experiment was accepted in accordance with Eurofins validation Standard Operating Procedure.
# (§15) Selectivity Screening of various chemokine receptors
# The results were performed by Eurofins DiscoverX (Fremont, California, USA). The
# [2] = target: T1, hERG (Homo sapiens, UniProt Q12809); test: hERG patch-clamp assay (hERG-CHO, automated patch-clamp); format: cell-based; details: human, CHO cells that express hERG
# T1 construct: host or cells: CHO (hERG-CHO)
# From the text: (§16) page 16: Table: List of genes examined by real-time PCR and the primer sequences used. Genes Forward primers Reverse primers Slug [NT] Fn1 [NT] Cdh2 […] Foxc2 [NT] Zeb1 [NT] Zeb2 [NT] Twist1 [NT] Cdh1 [NT] Mta3 [NT] Cldn3 [NT] Cldn5 [NT] β-actin […] [NT] Off-target standard assays Methods employed in this study have been adapted from the scientific literature to maximize reliability and reproducibility. Reference standards were run as an integral part of each assay to ensure the validity of the results obtained. Radioligand binding Assays were performed under conditions described in the accompanying "Methods" section of this report by Eurofins Panlabs, Inc (Taipei, Taiwan, ROC). hERG patch-clamp assay BPRCX807 were tested in the hERG (hERG-CHO, automated patch-clamp) assay and determined at Eurofins Panlabs (Missouri, USA). The experiment was accepted in accordance with Eurofins validation Standard Operating Procedure. Selectivity Screening of various chemokine receptors The results were performed by Eurofins DiscoverX (Fremont, California, USA). The S15
# [3] = target: T2, hERG (human K+ channel) (Homo sapiens, UniProt Q12809); test: as above; format: cell-based
# T2 construct: host or cells: CHO (hERG-CHO)
# From the text: as §16
# [4] = target: CXCR4 (Homo sapiens, UniProt P61073); test: PathHunter β-arrestin assay, chemokine receptor selectivity; format: cell-based
# From the text: as §1, §2, §3, §4, §5, §6, §7, §8, §9, §10, §11, §12, §13, §14, §15
# (§17) The results were performed by Eurofins DiscoverX (Fremont, California, USA). The […]
# (§18) PathHunter® β -Arrestin assay was performed in a homogenous, non-imaging assay format […]
# (§19) using a technology developed by DiscoverX called Enzyme Fragment Complementation […]
# (§20) called Enzyme Acceptor (EA). PK and EA are then expressed as fusion proteins in the cell, […]
# (§21) restoring β-Gal activity which is measured using chemiluminescent PathHunter® Detection […]
# [5] = test system: other chemokine receptors (10 CCRs, 7 CXCRs, and 1 CX3CR subtypes); test: as above; format: cell-based; details: 10 µM
# From the text: as §1, §2, §3, §4, §5, §6, §7, §8, §9, §10, §11, §12, §13, §14, §15, §17, §18, §19, §20, §21
# T1 sequence (Q12809 whole entry): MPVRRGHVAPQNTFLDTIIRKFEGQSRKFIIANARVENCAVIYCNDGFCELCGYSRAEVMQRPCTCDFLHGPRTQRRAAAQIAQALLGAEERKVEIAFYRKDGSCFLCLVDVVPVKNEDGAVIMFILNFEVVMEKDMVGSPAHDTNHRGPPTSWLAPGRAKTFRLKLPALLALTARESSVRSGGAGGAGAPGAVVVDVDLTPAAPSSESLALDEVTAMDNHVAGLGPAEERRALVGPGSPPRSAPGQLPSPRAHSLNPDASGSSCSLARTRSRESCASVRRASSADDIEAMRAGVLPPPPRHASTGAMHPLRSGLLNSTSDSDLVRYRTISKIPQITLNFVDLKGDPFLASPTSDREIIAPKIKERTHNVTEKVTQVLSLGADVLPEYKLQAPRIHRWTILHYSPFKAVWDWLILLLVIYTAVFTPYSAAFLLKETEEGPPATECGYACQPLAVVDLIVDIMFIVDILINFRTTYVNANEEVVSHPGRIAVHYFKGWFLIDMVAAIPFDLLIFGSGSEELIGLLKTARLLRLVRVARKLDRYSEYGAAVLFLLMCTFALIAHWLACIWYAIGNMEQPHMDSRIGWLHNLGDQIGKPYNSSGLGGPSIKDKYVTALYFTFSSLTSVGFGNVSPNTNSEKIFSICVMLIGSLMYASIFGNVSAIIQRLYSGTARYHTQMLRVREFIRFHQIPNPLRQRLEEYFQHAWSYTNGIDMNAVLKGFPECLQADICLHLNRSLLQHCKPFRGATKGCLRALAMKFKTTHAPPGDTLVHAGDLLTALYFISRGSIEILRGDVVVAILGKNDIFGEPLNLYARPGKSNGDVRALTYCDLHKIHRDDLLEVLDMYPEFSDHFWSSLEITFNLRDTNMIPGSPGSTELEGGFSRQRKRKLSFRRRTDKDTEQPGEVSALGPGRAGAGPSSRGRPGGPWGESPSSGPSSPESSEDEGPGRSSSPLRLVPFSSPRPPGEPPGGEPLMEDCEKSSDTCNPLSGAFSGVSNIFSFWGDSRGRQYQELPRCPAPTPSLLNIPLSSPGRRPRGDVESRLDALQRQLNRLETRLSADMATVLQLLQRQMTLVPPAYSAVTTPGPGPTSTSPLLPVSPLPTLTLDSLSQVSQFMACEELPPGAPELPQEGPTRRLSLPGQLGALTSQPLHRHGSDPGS
# Sequence of CXCR4 (P61073 whole entry): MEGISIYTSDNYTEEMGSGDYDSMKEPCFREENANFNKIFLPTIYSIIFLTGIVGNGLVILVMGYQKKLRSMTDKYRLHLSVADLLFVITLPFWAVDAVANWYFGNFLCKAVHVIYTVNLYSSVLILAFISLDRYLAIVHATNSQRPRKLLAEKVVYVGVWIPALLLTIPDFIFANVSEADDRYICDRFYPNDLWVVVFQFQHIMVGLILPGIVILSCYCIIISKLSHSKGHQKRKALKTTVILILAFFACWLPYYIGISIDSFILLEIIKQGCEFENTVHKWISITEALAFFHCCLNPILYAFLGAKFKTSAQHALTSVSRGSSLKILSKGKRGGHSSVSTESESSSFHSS
# T2 sequence (Q12809 whole entry): as the sequence (Q12809 whole entry) above
compound,measurement,setting,value
Cc1cc(NC2CCN(C(=O)CCNCC(=O)O)CC2)nc(NCc2nc(CCCNCCCNC3CCCCC3)co2)n1 [BPRCX807],Inhibition of 65 other nonprimary targets,[1],< 50%
same,inhibition at 1 µM,[2]; 1 µM,13.8%
same,inhibition at 10 µM,[2]; 10 µM,9%
same,inhibition at 100 µM,[2]; 100 µM,17.4%
same,IC50,[3],> 100 µM
same,inhibition at 10 µM,[4],100%
same,Inhibition of other chemokine receptors (β-arrestin assay),[5],< 10%

# Source: article PMC8020795 (Proceedings of the National Academy of Sciences of the …, 2021)
